Assay results taken from US4889634A, “Dialysate solution containing hydroxypropyl-beta-cyclodextrin and method of using same” (priority 1988, dated 1989).

Key:
laboratory animals = conditions: cited from earlier work
[1] = relative nephrotoxicity of HPBCD and BCD, intraperitoneal; format: in vivo, rat; conditions: rat, in vivo, ip, BCD 0.75%
Experimental: (§1) A first study was conducted to determine the relative nephrotoxicity of HPBCD and BCD. A control group using phosphate buffer solution was also included in the study.
(§2) Three groups of normal rats were utilized in this study. […] Group I rats were given the vehicle solution of phosphate buffer saline (PBS). Group II rats were subdivided into three sub-groups. The first sub-group received a solution having a concentration of 1.5% HPBCD, the second sub-group received a solution having a concentration of 3% HPBCD while the third sub-group received a solution having a concentration of 6% HPBCD. Group III rats were given a solution having a concentration of 0.75% BCD.
(§3) Animals from each group were sacrificed at 24 and 72 hours after injection of the peritoneal solution. The animals were sacrificed under general anesthesia and exsanguinated from the abdominal aorta. Plasma was separated and blood urea nitrogen and creatinine was measured and used as an index of renal toxicity of the solutions.

normal rats = test: as above; format: in vivo, rat; conditions: for Mortality (died/total): BCD 0.75% w/v, HPBCD 1.5 and 3% w/v, 15 ml/100 g i.p.; for Rats died of kidney failure: in words
Experimental: as §1, §2, §3

[2] = 1 day, BCD 0.75%, HPBCD 1.5 and 3%
[3] = 3 day, BCD 0.75%, HPBCD 1.5 and 3%

## OC[C@H]1O[C@@H]2O[C@H]3[C@H](O)[C@@H](O)[C@@H](O[C@H]4[C@H](O)[C@@H](O)[C@@H](O[C@H]5[C@H](O)[C@@H](O)[C@@H](O[C@H]6[C@H](O)[C@@H](O)[C@@H](O[C@H]7[C@H](O)[C@@H](O)[C@@H](O[C@H]8[C@H](O)[C@@H](O)[C@@H](O[C@H]1[C@H](O)[C@H]2O)O[C@@H]8CO)O[C@@H]7CO)O[C@@H]6CO)O[C@@H]5CO)O[C@@H]4CO)O[C@@H]3CO [BCD, beta-cyclodextrin]
Laboratory animals; laboratory animals, reports in literature
  Renal toxicity (kidney enlargement, death): enlargement of the kidneys and death due to kidney failure
Laboratory animals; rat, in vivo
  Toxicity at high concentrations: toxic
Laboratory animals; rats, peritoneal dialysate, Perrin et al.
  Removal of intravenously administered toxins: accelerate the removal of intravenously administered toxins in rats
[1]; 1d, n = 6
  mortality at 24 h: 16.7%
[1]; 3d, n = 9
  mortality at 72 h: 77.8%
Normal rats; 1 day
  Mortality (died/total): 1/6
Normal rats; [2]
  Kidney size: enlarged
  Kidney weight: increased
Normal rats; 1 day, BCD 0.75%, HPBCD 1.5 and 3%, Table III
  BUN: 79.4 mg/dL
Normal rats; 3 day
  Mortality (died/total): 8/9
Normal rats; [3]
  Kidney size: enlarged
  Kidney weight: increased
Normal rats; BCD 0.75%, 1d, n = 6
  BUN: 79.4 mg/dL
  Final body weight Wt (f): 218 g
  Initial body weight Wt (i): 223 g
  Left kidney weight (Lt kd): 1272 mg
  Left kidney/body weight (Lt kd/wt): 5.83 mg/g
  Right kidney weight (Rt kd): 1307 mg
  Right kidney/body weight (Rt kd/wt): 5.98 mg/g
Normal rats; BCD 1d Group
  Rats died of kidney failure: One rat
Normal rats; BCD 3d Group (nine rats)
  Rats died of kidney failure: all but two of the nine rats
